From patent US6906061B2, “Pharmaceutical agent containing Rho kinase inhibitor” (Mitsubishi Pharma Corporation, priority 1996, dated 2005)

Experiments:
[1] = molecular target: T1, p160ROCK (Homo sapiens, UniProt Q13464); assay: Inhibition of p160ROCK (myc-tagged, expressed in COS cells); assay type: biochemical; conditions: enzyme expressed in COS cells
T1 construct: made in house; host or cells: COS cells (transient transfection, immunoprecipitated with 9E10 anti-myc antibody on protein G-Sepharose)
T1 sequence (Q13464 whole entry): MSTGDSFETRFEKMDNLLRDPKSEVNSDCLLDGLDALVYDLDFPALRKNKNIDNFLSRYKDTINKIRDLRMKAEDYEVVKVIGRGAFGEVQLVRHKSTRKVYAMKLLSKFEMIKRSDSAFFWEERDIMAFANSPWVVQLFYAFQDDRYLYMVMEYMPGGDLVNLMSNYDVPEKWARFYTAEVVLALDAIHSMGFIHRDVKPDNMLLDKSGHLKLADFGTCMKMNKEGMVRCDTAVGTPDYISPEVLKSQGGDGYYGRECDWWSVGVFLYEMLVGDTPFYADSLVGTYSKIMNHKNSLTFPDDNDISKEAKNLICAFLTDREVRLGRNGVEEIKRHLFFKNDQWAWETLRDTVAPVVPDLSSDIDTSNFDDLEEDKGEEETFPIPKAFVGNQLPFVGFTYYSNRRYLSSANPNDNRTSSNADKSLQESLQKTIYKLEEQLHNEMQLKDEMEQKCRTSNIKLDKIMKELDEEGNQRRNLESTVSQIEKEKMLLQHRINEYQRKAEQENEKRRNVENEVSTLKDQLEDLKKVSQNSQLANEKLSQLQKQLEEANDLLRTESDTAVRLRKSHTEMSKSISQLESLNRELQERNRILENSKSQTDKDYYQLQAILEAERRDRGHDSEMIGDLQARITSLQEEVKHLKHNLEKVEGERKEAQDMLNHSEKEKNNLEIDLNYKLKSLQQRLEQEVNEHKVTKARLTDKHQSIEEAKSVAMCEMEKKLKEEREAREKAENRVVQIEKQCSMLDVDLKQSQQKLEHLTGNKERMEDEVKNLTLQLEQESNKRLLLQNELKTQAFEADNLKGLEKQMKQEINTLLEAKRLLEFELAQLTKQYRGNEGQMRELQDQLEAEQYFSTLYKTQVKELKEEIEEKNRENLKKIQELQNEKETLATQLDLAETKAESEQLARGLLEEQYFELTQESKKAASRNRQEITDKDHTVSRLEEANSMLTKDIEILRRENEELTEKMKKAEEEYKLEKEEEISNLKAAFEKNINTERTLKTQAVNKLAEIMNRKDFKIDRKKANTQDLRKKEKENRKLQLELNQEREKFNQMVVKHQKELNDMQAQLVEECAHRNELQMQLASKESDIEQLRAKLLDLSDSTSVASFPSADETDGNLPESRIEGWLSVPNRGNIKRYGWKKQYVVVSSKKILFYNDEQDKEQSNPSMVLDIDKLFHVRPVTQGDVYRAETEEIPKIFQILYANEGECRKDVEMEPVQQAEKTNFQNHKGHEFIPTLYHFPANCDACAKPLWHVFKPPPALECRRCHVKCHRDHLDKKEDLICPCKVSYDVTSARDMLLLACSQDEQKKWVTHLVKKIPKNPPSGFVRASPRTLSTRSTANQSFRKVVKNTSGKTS
Description: (§1) Kinase assay included the following steps. That is, a reaction mixture (total amount 30 μl) containing 50 mM Hepes-NaOH (pH=7.4), 10 mM MgCl2, 5 mM MnCl2, 2 mM dithiothreitol, 0.02% Brij35, 1 μM [γ-^32P]ATP, 330 μg/ml histone, p160ROCK (2 μl) isolated by the method of Ishizaki et al. and the test compound was incubated at 30° C. for 20 minutes. The solution was mixed with a 1/3 amount of 4× Laemmli sample buffer, boiled for 5 minutes and applied to SDS-PAGE. The gel was stained with Coomassie Brilliant Blue and dried. The band of histone was cut out and assayed for radioactivity.
(§2) Rho Kinase Inhibitory Action (Inhibition of p160ROCK and ROCKII)
(§3) COS cells were seeded in a 3.5 cm dish and incubated overnight. […] After incubation for 20 hours, the cells were washed once with ice-cooled PBS, and the cells were lysed on ice for 20 minutes using a lysis buffer (20 mM Tris-HCl (pH=7.5), 1 mM EDTA, 1 mM EGTA, 5 mM MgCl2, 25 mM NaF, 10 mM β glycerophosphate, 5 mM sodium pyrophorphate, 0.2 mM phenylmethylsulfonyl fluoride, 2 mM dithiothreitol, 0.2 mM sodium vanadate, 0.05% Triton X-100, 0.1 μM calyculin A). The lysate was centrifuged at 10,000×g for 10 minutes and the supernatant was recovered. […] Then, protein G-Sepharose was added and the mixture was shaken for 2 more hours. […]

[2] = system: CEM cells (human T cell type established cell); assay: Inhibition of VLA integrin activation (phorbol ester-induced adhesion of CEM cells to fibronectin); assay type: cell-based; conditions: CCRF-CEM, PMA-induced adhesion, read-out: Adhesion induction inhibition (%)
Description: Inhibition of VLA (Very Late Antigen) Integrin Activation
As the index of the activation by VLA integrin, phorbol ester-induced adhesion of CEM cells (human T cell type established cell) to fibronectin, which is a ligand of VIA integrin, was measured. The inhibitory action on the induced adhesion by the test compound was determined by the following method.
CEM cells were washed with RPMI1640 medium containing 0.5% bovine serum albumin (BSA), 10 mM HEPES, 2 mM L-glutamin, 1 mM sodium pyruvate, 60 μg/ml kanamycin sulfate and 1.5 mg/ml sodium hydrogencarbonate (hereinafter this medium is referred to as culture solution) and suspended in this medium for use in the following experiment. To each well of a 96 well plate coated with human fibronectin were added CEM cells (5×10^4) and the test compound dissolved in the culture solution (final concentration 1-100 μM) to the amount of 100 μl, and the plate was stood at 37° C. for 1 hour. Then, PMA (phorbol 12-myristate 13-acetate, TPA; final concentration 10 ng/ml) and the test compound were added to the amount of 200 μl, and the plate was stood at 37° C. for 30 minutes. Each well was washed twice with the culture solution (200 μL) at 37° C., and the LDH (lactate dehydrogenase) activity of the cells adhered to the plate was determined, whereby the amount of the adhered cell was measured. Based on the results obtained by the above-mentioned method, the inhibitory action of the test compound on the induced adhesion was calculated by the following formula The results are shown in Table 6. Inhibition (%) of adhesion induction=(a−b)/(a−c)×100 • a=number of cells adhered with the addition of PMA • b=number of cells adhered with the addition of test compound and PMA • c=number of cells adhered without stimulation

[3] = molecular target: T2, Human Platelet Rho Kinase (p160ROCK) (Homo sapiens, UniProt Q13464); assay: Rho kinase inhibitory action (inhibition of human platelet Rho kinase (p160ROCK)); assay type: biochemical; conditions: histone substrate, 1 μM ATP
T2 construct: Human platelet p160ROCK was isolated by the method of Ishizaki et al; from tissue; host or cells: human platelets
T2 sequence (Q13464 whole entry): as above
Description: Rho Kinase Inhibitory Action (Inhibition of Human Platelet Rho Kinase (p160ROCK))
as §1

[4] = system: mouse femoral bone; assay: Inhibition of bone resorption (in vitro), mouse femoral bone; conditions: 144 h, 6 days incubation of ICR mouse femoral bone
Description: Inhibition of Bone Resorption (in vitro)
The determination of the in vitro inhibition of bone resorption using mouse femoral bone followed the method below.
The femoral bone of 3-6 week old male ICR mice was aseptically removed, and bone marrow cavity was washed with F12 medium, containing 10% heat inactivated fetal bovine serum, penicillin G calcium (100 units/ml), kanamycin sulfate (60 μg) and 0.15% sodium hydrogencarbonate (hereinafter the medium is to be referred to as culture solution). After washing the bone marrow cavity and then removing the soft tissue adhered to the bone, the bone was subjected to incubation. The test compound was once dissolved in dimethyl sulfoxide (DMSO) to give a 10 mg/ml solution, which was diluted 1000-fold with the culture solution to give a 10 μg/ml solution. The test compounds were respectively added to the concentration shown in Table 7 and, using this culture solution (1.2 ml), the ICR mouse femoral bone was incubated in a 24 well plate for 6 days under the conditions of 5% CO2 gas, 95% air. After the completion of the incubation, the culture supernatant was recovered, and the amount of calcium suspending in the culture supernatant was quantitatively determined by the chelate method using o-cresolphthalein. The bone resorption inhibitory action of the test compound was calculated by the following formula using the incubation of the femoral bone without addition of the test compound as a control. [formula] This experiment was done with 4 cases in each group. As the control, the same amount of DMSO alone as in the case with the addition of the test compound was used.

[5] = molecular target: T3, ROCKII (Mus musculus, UniProt P70336); assay: Inhibition of ROCKII (myc-tagged, expressed in COS cells); assay type: biochemical; conditions: enzyme expressed in COS cells; read-out: IC50 (μM) ROCK-II
T3 construct: made in house; host or cells: COS cells (transient transfection, immunoprecipitated with 9E10 anti-myc antibody on protein G-Sepharose)
T3 sequence (P70336 whole entry): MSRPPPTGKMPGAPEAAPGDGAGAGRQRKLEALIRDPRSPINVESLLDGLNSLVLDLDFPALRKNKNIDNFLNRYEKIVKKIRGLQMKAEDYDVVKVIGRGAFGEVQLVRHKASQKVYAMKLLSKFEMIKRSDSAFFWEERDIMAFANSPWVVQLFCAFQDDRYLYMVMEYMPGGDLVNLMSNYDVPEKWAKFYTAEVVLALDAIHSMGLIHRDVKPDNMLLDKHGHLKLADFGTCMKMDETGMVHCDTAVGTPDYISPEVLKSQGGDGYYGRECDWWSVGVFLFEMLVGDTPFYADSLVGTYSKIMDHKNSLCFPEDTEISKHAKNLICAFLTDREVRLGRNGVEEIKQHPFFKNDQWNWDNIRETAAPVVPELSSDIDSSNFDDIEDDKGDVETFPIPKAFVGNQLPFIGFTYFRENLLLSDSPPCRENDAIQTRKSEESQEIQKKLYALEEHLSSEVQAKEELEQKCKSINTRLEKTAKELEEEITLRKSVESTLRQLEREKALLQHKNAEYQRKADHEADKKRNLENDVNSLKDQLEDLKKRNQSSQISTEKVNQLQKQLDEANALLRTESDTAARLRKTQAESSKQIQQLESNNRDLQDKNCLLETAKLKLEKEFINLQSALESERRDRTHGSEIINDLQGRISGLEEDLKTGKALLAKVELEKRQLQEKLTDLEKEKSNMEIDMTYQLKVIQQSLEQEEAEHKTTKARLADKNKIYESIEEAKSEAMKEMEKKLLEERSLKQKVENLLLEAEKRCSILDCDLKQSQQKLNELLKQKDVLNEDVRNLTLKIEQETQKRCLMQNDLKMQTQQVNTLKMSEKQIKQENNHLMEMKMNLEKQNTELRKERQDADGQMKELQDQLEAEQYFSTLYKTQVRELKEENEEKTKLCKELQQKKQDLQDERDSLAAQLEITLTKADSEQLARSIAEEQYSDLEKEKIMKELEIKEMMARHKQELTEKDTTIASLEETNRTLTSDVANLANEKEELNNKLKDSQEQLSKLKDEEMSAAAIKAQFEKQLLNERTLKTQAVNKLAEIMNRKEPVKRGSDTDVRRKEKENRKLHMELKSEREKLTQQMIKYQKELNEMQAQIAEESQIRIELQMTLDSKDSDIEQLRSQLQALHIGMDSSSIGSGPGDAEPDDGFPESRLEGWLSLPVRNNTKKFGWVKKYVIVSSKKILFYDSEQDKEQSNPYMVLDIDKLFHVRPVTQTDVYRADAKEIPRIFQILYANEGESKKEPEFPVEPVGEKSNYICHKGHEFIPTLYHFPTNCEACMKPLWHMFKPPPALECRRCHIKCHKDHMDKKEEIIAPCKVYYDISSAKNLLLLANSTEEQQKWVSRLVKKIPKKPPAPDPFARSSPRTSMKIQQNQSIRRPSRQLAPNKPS
Description: as §1, §2, §3

[6] = system: ddY mice; assay: Acute toxicity in ddY mice; assay type: in vivo; conditions: intraperitoneal administration at 30 mg/kg, monitored for 5 days
Source text: The compound 109.2HCl and compound 143.2HCl.H2O were respectively administered intraperitoneally to ddY mice and the mice were monitored for 5 days.

[7] = system: Bovine Aorta Thoracia Rho Kinase; assay: Rho kinase inhibitory action (inhibition of bovine aorta thoracia Rho kinase); assay type: biochemical; conditions: test compound 10 μM
Description: Rho Kinase Inhibitory Action (Inhibition of Bovine Aorta Thoracia Rho Kinase)
The Rho kinase was prepared from bovine aorta of thorax by partial purification as in the following. The artery was minced and homogenized with a 9-fold amount of 50 mM Tris-hydroxymethylaminomethane (Tris) (pH=7.4), 1 mM dithiothreitol, 1 mM EGTA, 1 mM EDTA, 100 μM p-amidinophenylmethylsulfonyl fluoride, 5 μM E-64, 5 μM leupeptine and 5 μM pepstatin A. The homogenate was centrifuged (10,000×g, 30 minutes) to give supernatant. The supernatant was adsorbed onto a hydroxyapatite column. The column was washed with 0.2M phosphate buffer (pH=6.8). The standard product of Rho kinase was eluted with 0.4M phosphate buffer (pH=6.8). The Rho kinase was assayed as follows.
A reaction mixture (total amount 50 μl) containing 50 mM Tris, 1 mM EDTA, 5 mM MgCl2, 50 μg/ml histone, 10 μM GTPγS, 100 μg/ml Rho, 2 μM [^32P]ATP, the Rho kinase (3 μl) prepared in the above and the test compound was reacted at 30° C. for 5 minutes. The reaction was terminated by the addition of 25% trichloroacetic acid (TCA) solution (1 ml) and the mixture was stood at 4° C. for 30 minutes. Then, the mixture was filtered through a membrane filter (HAWP type, Millipore), and the radioactivity of the filter was counted on a liquid scintillation counter. The inhibitory action of the test compound was calculated from the following formula based on the comparison of the radioactivity with the sample without the test compound (control).

[8] = system: trachea specimen contracted with acetylcholine; assay: Effect on contraction by acetylcholine of trachea specimen removed from guinea pig; conditions: Cavia porcellus, acetylcholine 10^−6 M contraction, 50% relaxation vs papaverine 10^−4 M maximum, read-out: Trachea relaxing action
Description: Male Hartley guinea pigs (body weight 260-390 g) were anesthetized by the peritoneal administration of pentobarbital sodium (100 mg/kg) and exsanguinated, whereafter trachea was removed. The anterior cartilage of the trachea was opened and the band was cut in a 3 mm width strip to give a specimen. The specimen was hung in a Magnus bath (40 ml) filled with Krebs-Henseleit solution (NaCl 117 mM; KCl 4.7 mM; CaCl2 2.5 mM; MgSO4 1.2 mM; NaHCO3 24.8 mM; KH2PO4 1.2 mM; glucose 11.0 mM) at a load of 1 g. The Magnus bath was constantly bubbled with a mixed gas (95% O2+5% CO2 gas). The tension of the strip was measured with an isomeric transducer (TB-611T, Nippon Koden) and depicted on a recorder (Ti-102, Tokai Irika).

[9] = system: normal human umberical vascular endothelial cells; assay: Inhibition of angiogenesis (lumen formation in vascular endothelial cells); assay type: cell-based; conditions: 18 hours, compared with the control, number rises with inhibition of lumen formation
Description: Inhibition of Angiogenesis
The inhibition of angiogenesis was evaluated by using the inhibition of lumen formation in vascular endothelial cell as an index. To be specific, normal human umberical vascular endothelial cells (KURABO […] LTD.) were suspended in E-GMUV medium at 5.5×10^4 cells/ml and 400 μl therefrom was added on matrigel plate (EHS sarcoma-derived reconstructed basement membrane, Collaborative Biomedical Products). Then, the test compound (1 mM solution, 4 μl) was added and the cells were incubated at 37° C. under 5% CO2 gas for 18 hours. After the completion of the incubation, the number of lumen per predetermined area was counted under a microscope. Inasmuch as the number of lumen increases by the inhibition of lumen formation, the test compound was evaluated by comparison of the number of lumen with the control.

[10] = system: hind limb skin blood flow; assay: Peripheral blood flow increasing action in STZ-induced diabetic rats; assay type: in vivo, rat; conditions: intravenous
Description: Peripheral Blood Flow Increasing Action
Streptozotocin (STZ, 65 mg/kg) was intravenously injected to male SD rats (body weight 200-300 g) to prepare diabetic rats. One month later, STZ-induced diabetic rats were anesthetized with pentobarbital sodium and the blood flow in the hind limb skin was measured with laser blood flowmeter (ALF21R, Advance). The test compound was intravenously administered via catheter dwelled in the carotid arteries, and hind limb skin blood flow increasing action was observed. The blood flow increasing action of the test compound was expressed by increase percentage from the blood flow before administration.

[11] = system: smooth muscle cell (SMC) from rat aorta; assay: Inhibition of growth of vascular smooth muscle cell; assay type: cell-based; conditions: 48 hours, MTT
Description: Inhibition of Growth of Vascular Smooth Muscle Cell
The separation from the artery of rat and culture of smooth muscle cell (SMC) followed the explant method of Ross (Ross, R. and Glomset, J. A., N. Engl. J. Med., 295, 369-420, 1976). Male wistar rats (10 week old) was slaughtered by cutting the carotid arteries and aorta of thorax was removed. After removal of fat tissues around the tunica externa and peeling of tunica intima, the artery was minced and incubated in 10% fetal bovine serum (FBS)-containing DMEM medium at 37° C. under 5% CO2 gas. Seven days later, the out-grown cells were separated by trypsin treatment, washed with phosphate-buffered saline (PBS) and incubated in 10% FBS-containing DMEM medium in a 80 cm^2 culture flask. The cells of subculture 2 were suspended in 10% FBS-containing DMEM medium at 5×10^4 cells/ml and 100 μl thereof per well was added to 96 well collagen-coated plate, which was incubated at 37° C. under 5% CO2 gas for one day. The test compound was appropriately diluted with dimethyl sulfoxide (DMSO) and added to the 96 well plate. The concentration of DMSO in the medium was adjusted to 1%. After 48 hours, 10 μl of MTT solution (5 mg/ml) was added and, 4 hours later, 10% sodium dodecyl sulfate-0.01 N hydrochloric acid (50 μl) was added. The absorbance at 570 nm was measured the following day by an immunoreader. The SMC growth inhibitory action of the test compound was shown by inhibition percentage calculated by the following formula The results are shown in Table 10.

[12] = system: thoractic aorta ring contracted with phenylephrine; assay: Vasodilating action on phenylephrine-contracted thoracic aorta rings; conditions: Oryctolagus cuniculus; rabbit aortic ring, phenylephrine 10^−6 M contraction; concentration for 50% relaxation; read-out: Vasorelaxing action
Description: Male rabbits (body weight 1.9-3.0 kg) were anesthetized with pentobarbital sodium and exsanguinated, whereafter thoractic aorta was removed. An about 2 mm width aortic ring samples were prepared and hung in a Magnus bath (40 ml) filled with Krebs-Henseleit solution (37° C., NaCl 117 mM; KCl 4.7 mM; CaCl2 2.5 mM; MgSO4 1.2 mM; NaHCO3 24.8 mM; KH2PO4 1.2 mM; glucose 11.0 mM) at a load of 2 g. The Magnus bath was constantly bubbled with a mixed gas (95% O2+5% CO2 gas). The tension of the preparation was measured with an isomeric transducer (TB-611T, Nippon Koden). The preparation was contracted with phenylephrine (10^−6 M) and, after the contraction was stabilized, the test compound was added accumulatively and relaxing action was observed.

Q: Which IC50 [1] does the source give for N=C(N)NC[C@H]1CC[C@H](C(=O)Nc2ccnc3[nH]ncc23)CC1 [Compound 143.2HCl.H2O, trans-N-(1H-pyrazolo[3,4-b]pyridin-4-yl)-4-guanidinomethylcyclohexanecarboxamide] here?
A: 0.88 µM

Q: And the inhibition at 100 µM ([2]; concentration 100 μM)?
A: 77%

Q: What about the IC50 [3] of the same molecule?
A: 1600 nM

Q: And the inhibition at 100 µM [4]?
A: 39.4%

Q: What about the IC50 [5] of the same molecule?
A: 0.47 µM

Q: And the “Acute toxicity (death)” value [6]?
A: did not cause death

Q: What does the source list for C[C@@H](N)c1ccc(C(=O)Nc2ccnc3[nH]ccc23)cc1 [Compound 165.2HCl.3/2H2O, (R)-(+)-N-(1H-pyrrolo[2,3-b]pyridin-4-yl)-4-(1-aminoethyl)benzamide]?
A: Inhibition (%) [7]: 100%; IC50 [8]: 66 nM; Number of lumen (10 μM) [9]: 222%; inhibition at 10 µM ([2]; concentration 10 μM): 40%; Increase in skin blood flow ± standard error (%) ([10]; 0.03 μg): 135.8 ± 0.0%; Increase in skin blood flow ± standard error (%) ([10]; 0.1 μg): 144.7 ± 0.0%; IC50 [11]: 38000 nM; IC50 [12]: 51 nM
